Measurements from patent EP4650353A1 (Shanghai Institute of Materia Medica, Chinese Academy of …, priority 2023, dated 2024).

The compounds below were run against T1, human GLP-1 receptor (Homo sapiens, UniProt P43220) (assay: GLP-1 receptor-mediated agonist activity: cAMP level in hGLP-1R/HEK293 cell line (HTRF)). Details: cAMP levels in hGLP-1R/HEK293 cell line; Table 1; read-out: determined EC50.
T1 construct: HA (N); expressed in transfected cells
Assay type: cell-based
Method: The hGLP-1R/HEK293 cells were digested, centrifuged and resuspended in culture medium (DMEM+0.2% BSA, m/v), and the cell density was adjusted to 2×10^5 cells/mL. IBMX (3-isobutyl-1-methylxanthine, final concentration of 0.5 mM) was added to the cell suspension and added to a 384-well plate at 5 µL (1×10^3 cells)/well. The compound was dissolved in DMSO to prepare a stock solution with a concentration of 10 mM. The experiment started with a concentration of 100 µM which was diluted 10 times in a series of 7 dilution points, with the 8th point being DMSO. 2 µL of the test compound of different concentrations was added to 98 µL of culture medium, shaken and mixed, 5 µL was taken and added to a 384-well plate (final concentration of the test compound was 0-100 nM, final concentration of DMSO was 1%, v/v), which was then incubated in the incubator (37°C, 5% CO2) in the dark for 30 min, then 10 µL of cAMP detection reagent (LANCE Ultra cAMP Detecion Kit, PerkinElmer, #TRF0264) was added, mixed well, and reacted at room temperature in the dark for 1 h. After the reaction was completed, the HTRF signal was read using the Envision 2104 multi-function microplate reader. All samples were tested in triplicate wells, and the ratio of the acceptor-donor excitation signal in each single well was calculated using the formula Ratio = Signal 665nM/Signal 620nM. The HTRF signal ratio and the corresponding compound concentration were analyzed and processed using GraphPad Prism 8 software, and the EC50 value of the compound was obtained by fitting the S-type dose-response curve and calculating.

T1 sequence (P43220 24-463): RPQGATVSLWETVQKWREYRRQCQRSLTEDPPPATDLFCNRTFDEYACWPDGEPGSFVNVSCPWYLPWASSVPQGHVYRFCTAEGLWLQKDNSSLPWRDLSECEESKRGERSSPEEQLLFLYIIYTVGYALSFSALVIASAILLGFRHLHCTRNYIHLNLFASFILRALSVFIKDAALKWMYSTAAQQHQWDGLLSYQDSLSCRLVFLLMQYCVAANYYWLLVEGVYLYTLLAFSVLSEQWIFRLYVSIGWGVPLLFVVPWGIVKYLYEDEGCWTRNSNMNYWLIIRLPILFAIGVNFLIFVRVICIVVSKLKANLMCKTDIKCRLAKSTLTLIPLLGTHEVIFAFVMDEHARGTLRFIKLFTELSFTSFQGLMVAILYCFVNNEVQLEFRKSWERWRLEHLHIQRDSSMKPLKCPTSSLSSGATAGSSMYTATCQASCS

Compound | EC50 [pM]
4-methoxy-2-((4-(2-(2-methoxy-4-(trifluoromethyl)phenyl)-2-methylbenzo[d][1,3]dioxol-4-yl)piperidin-1-yl)methyl)-1-((S)-oxetan-2-yl)methyl]-1H-benzo[d]imidazole-6-carboxylic acid [Compound 59] | 3.1
COc1cc(C(=O)O)cc2c1nc(CN1CCC(c3cccc(OCc4ccc(C#N)cc4F)n3)CC1)n2C[C@@H]1CCO1 [Compound 1, (S)-2-((4-(6-((4-cyano-2-fluorobenzyl)oxy)pyridin-2-yl)piperidin-1-yl)methyl)-4-methoxy-1-(oxetan-2-ylmethyl)-1H-benzo[d]imidazole-6-carboxylic acid] | 4.8
CCOc1cc(C(=O)O)cc2c1nc(CN1CCC(c3cccc(OCc4ccc(C#N)cc4F)n3)CC1)n2C[C@@H]1CCO1 [Compound 2, (S)-2-((4-(6-((4-cyano-2-fluorobenzyl)oxy)pyridin-2-yl)piperidin-1-yl)methyl)-4-ethoxy-1-(oxetan-2-ylmethyl)-1H-benzo[d]imidazole-6-carboxylic acid] | 1.1
N#Cc1ccc(COc2cccc(C3CCN(Cc4nc5c(OCC6CC6)cc(C(=O)O)cc5n4C[C@@H]4CCO4)CC3)n2)c(F)c1 [Compound 5, (S)-2-((4-(6-((4-cyano-2-fluorobenzyl)oxy)pyridin-2-yl)piperidin-1-yl)methyl)-4-(cyclopropylmethoxy)-1-(oxetan-2-ylmethyl)-1H-benzo[d]imidazole-6-carboxylic acid] | 12
COc1cc(C(=O)O)cc2c1nc(CN1CCN(c3cccc(OCc4ccc(C#N)cc4F)n3)C=N1)n2C[C@@H]1CCO1 [Compound 8, (S)-2-((4-(6-((4-cyano-2-fluorobenzyl)oxy)pyridin-2-yl)-5,6-dihydro-1,2,4-triazin-1(4H)-yl)methyl)-4-methoxy-1-(oxetan-2-ylmethyl)-1H-benzo[d]imidazole-6-carboxylic acid] | 3.4
CCCOc1cc(C(=O)O)cc2c1nc(CN1CCN(c3cccc(OCc4ccc(C#N)cc4F)n3)C=N1)n2C[C@@H]1CCO1 [Compound 10, (S)-2-((4-(6-((4-cyano-2-fluorobenzyl)oxy)pyridin-2-yl)-5,6-dihydro-1,2,4-triazin-1(4H)-yl)methyl)-1-(oxetan-2-ylmethyl)-4-propoxy-1H-benzo[d]imidazole-6-carboxylic acid] | 4.9
N#Cc1ccc(COc2cccc(N3C=NN(Cc4nc5c(OC(F)F)cc(C(=O)O)cc5n4C[C@@H]4CCO4)CC3)n2)c(F)c1 [Compound 11, (S)-2-((4-(6-((4-cyano-2-fluorobenzyl)oxy)pyridin-2-yl)-5,6-dihydro-1,2,4-triazin-1(4H)-yl)methyl)-4-(difluoromethoxy)-1-(oxetan-2-ylmethyl)-1H-benzo[d]imidazole-6-carboxylic acid] | 13.3
[2H]C([2H])([2H])Oc1cc(C(=O)O)cc2c1nc(CN1CCN(c3cccc(OCc4ccc(C#N)cc4F)n3)C=N1)n2C[C@@H]1CCO1 [Compound 12, (S)-2-((4-(6-((4-cyano-2-fluorobenzyl)oxy)pyridin-2-yl)-5,6-dihydro-1,2,4-triazin-1(4H)-yl)methyl)-4-(methoxy-d3)-1-(oxetan-2-ylmethyl)-1H-benzo[d]imidazole-6-carboxylic acid] | 4
N#Cc1ccc(COc2cccc(N3C=NN(Cc4nc5c(OC6CC6)cc(C(=O)O)cc5n4C[C@@H]4CCO4)CC3)n2)c(F)c1 [Compound 13, (S)-2-((4-(6-((4-cyano-2-fluorobenzyl)oxy)pyridin-2-yl)-5,6-dihydro-1,2,4-triazin-1(4H)-yl)methyl)-4-cyclopropyloxy-1-(oxetan-2-ylmethyl)-1H-benzo[d]imidazole-6-carboxylic acid] | 2.2
COc1cc(C(=O)O)cc2c1nc(CN1CCC(c3cccc(OCc4ccc(C#N)c5c4OCC5)n3)CC1)n2C[C@@H]1CCO1 [Compound 15, (S)-2-((4-(6-((4-cyano-2,3-dihydrobenzofuran-7-yl)methoxy)pyridin-2-yl)piperidin-1-yl)methyl)-4-methoxy-1-(oxetan-2-ylmethyl)-1H-benzo[d]imidazole-6-carboxylic acid] | 1.9
COc1cc(C(=O)O)cc2c1nc(CN1CCC(c3cccc(OCc4ccc(Cl)c5c4OCC5)n3)CC1)n2C[C@@H]1CCO1 [Compound 16, (S)-2-((4-(6-((4-chloro-2,3-dihydrobenzofuran-7-yl)methoxy)pyridin-2-yl)piperidin-1-yl)methyl)-4-methoxy-1-(oxetan-2-ylmethyl)-1H-benzo[d]imidazole-6-carboxylic acid] | 3.3
CCOc1cc(C(=O)O)cc2c1nc(CN1CCN(c3cccc(OCc4ccc(Cl)cc4F)n3)C=N1)n2C[C@@H]1CCO1 [Compound 21, (S)-2-((4-(6-((4-chloro-2-fluorobenzyl)oxy)pyridin-2-yl)-5,6-dihydro-1,2,4-triazin-1(4H)-yl)methyl)-4-ethoxy-1-(oxetan-2-ylmethyl)-1H-benzo[d]imidazole-6-carboxylic acid] | 1
COc1cc(C(=O)O)cc2c1nc(CN1CCN(c3cccc(OCc4ccc(C(F)(F)F)cc4F)n3)C=N1)n2C[C@@H]1CCO1 [Compound 22, (S)-2-((4-(6-((2-fluoro-4-(trifluoromethyl)benzyl)oxy)pyridin-2-yl)-5,6-dihydro-1,2,4-triazin-1(4H)-yl)methyl)-4-methoxy-1-(oxetan-2-ylmethyl)-1H-benzo[d]imidazole-6-carboxylic acid] | 8.5
CCOc1cc(C(=O)O)cc2c1nc(CN1CCN(c3cccc(OCc4ccc(C(F)(F)F)cc4F)n3)C=N1)n2C[C@@H]1CCO1 [Compound 24, (S)-4-ethoxy-2-((4-(6-((2-fluoro-4-(trifluoromethyl)benzyl)oxy)pyridin-2-yl)-5,6-dihydro-1,2,4-triazin-1(4H)-yl)methyl)-1-(oxetan-2-ylmethyl)-1H-benzo[d]imidazole-6-carboxylic acid] | 5.3
O=C(O)c1cc(OC2CC2)c2nc(CN3CCN(c4cccc(OCc5ccc(Cl)cc5F)n4)C=N3)n(C[C@@H]3CCO3)c2c1 [Compound 25, (S)-2-((4-(6-((4-chloro-2-fluorobenzyl)oxy)pyridin-2-yl)-5,6-dihydro-1,2,4-triazin-1(4H)-yl)methyl)-4-cyclopropyloxy-1-(oxetan-2-ylmethyl)-1H-benzo[d]imidazole-6-carboxylic acid] | 11.8
[2H]C([2H])([2H])Oc1cc(C(=O)O)cc2c1nc(CN1CCN(c3cccc(OCc4ccc(Cl)cc4F)n3)C=N1)n2C[C@@H]1CCO1 [Compound 26, (S)-2-((4-(6-((4-chloro-2-fluorobenzyl)oxy)pyridin-2-yl)-5,6-dihydro-1,2,4-triazin-1(4H)-yl)methyl)-4-(methoxy-d3)-1-(oxetan-2-ylmethyl)-1H-benzo[d]imidazole-6-carboxylic acid] | 9.3
COc1cc(C(=O)O)cc2c1nc(CN1CCC(c3cccc(OCc4ccc(C(F)(F)F)cc4F)n3)CC1)n2C[C@@H]1CCO1 [Compound 27, (S)-2-((4-(6-((2-fluoro-4-(trifluoromethyl)benzyl)oxy)pyridin-2-yl)piperidin-1-yl)methyl)-4-methoxy-1-(oxetan-2-ylmethyl)-1H-benzo[d]imidazole-6-carboxylic acid] | 8.7
CCOc1cc(C(=O)O)cc2c1nc(CN1CCC(c3cccc(OCc4ccc(C(F)(F)F)cc4F)n3)CC1)n2C[C@@H]1CCO1 [Compound 28, (S)-4-ethoxy-2-((4-(6-((2-fluoro-4-(trifluoromethyl)benzyl)oxy)pyridin-2-yl)piperidin-1-yl)methyl)-1-(oxetan-2-ylmethyl)-1H-benzo[d]imidazole-6-carboxylic acid] | 7.4
CCOc1cc(C(=O)O)cc2c1nc(CN1CCC(c3cccc(OCc4ccc(Cl)cc4F)n3)CC1)n2C[C@@H]1CCO1 [Compound 29, (S)-2-((4-(6-((4-chloro-2-fluorobenzyl)oxy)pyridin-2-yl)piperidin-1-yl)methyl)-4-ethoxy-1-(oxetan-2-ylmethyl)-1H-benzo[d]imidazole-6-carboxylic acid] | 2.2
COc1cc(C(=O)O)cc2c1nc(CN1CCN(c3cccc(OCc4ccc(Cl)cc4F)n3)CC1)n2C[C@@H]1CCO1 [Compound 30, (S)-2-((4-(6-((4-chloro-2-fluorobenzyl)oxy)pyridin-2-yl)piperazin-1-yl)methyl)-4-methoxy-1-(oxetan-2-ylmethyl)-1H-benzo[d]imidazole-6-carboxylic acid] | 9.6
COc1cc(C(=O)O)cc2c1nc(CN1CCC(c3cccnc3OCc3ccc(Cl)cc3F)CC1)n2C[C@@H]1CCO1 [Compound 31, (S)-2-((4-(2-((4-chloro-2-fluorobenzyl)oxy)pyridin-3-yl)piperidin-1-yl)methyl)-4-methoxy-1-(oxetan-2-ylmethyl)-1H-benzo[d]imidazole-6-carboxylic acid] | 37
CCOc1cc(C(=O)O)cc2c1nc(CN1CCC(c3cccnc3OCc3ccc(Cl)cc3F)CC1)n2C[C@@H]1CCO1 [Compound 32, (S)-2-((4-(2-((4-chloro-2-fluorobenzyl)oxy)pyridin-3-yl)piperidin-1-yl)methyl)-4-ethoxy-1-(oxetan-2-ylmethyl)-1H-benzo[d]imidazole-6-carboxylic acid] | 14.2
CCOc1cc(C(=O)O)cc2c1nc(CN1CCC(c3cccnc3OCc3ccc(C#N)cc3F)CC1)n2C[C@@H]1CCO1 [Compound 33, (S)-2-((4-(2-((4-cyano-2-fluorobenzyl)oxy)pyridin-3-yl)piperidin-1-yl)methyl)-4-ethoxy-1-(oxetan-2-ylmethyl)-1H-benzo[d]imidazole-6-carboxylic acid] | 46.7

Same assay, conditions: cAMP levels of the hGLP-1R/HEK293 cell line; Table 2, comparison with reference compounds; read-out: EC50

Compound | EC50 [pM]
N#Cc1ccc(COc2cccc(C3CCN(Cc4nc5ccc(C(=O)O)cc5n4C[C@@H]4CCO4)CC3)n2)c2occc12 [CN113480534 , Compound 3, reference compound] | 12.7
CC1(c2ccc(Cl)cn2)Oc2cccc(N3C=NN(Cc4nc5ccc(C(=O)O)cc5n4C[C@@H]4CCO4)CC3)c2O1 (some centres unmarked) [CN2022114139828 , Compound 36, reference compound] | 336
CC1(c2ccc(Cl)cc2F)Oc2cccc(N3C=NN(Cc4nc5ccc(C(=O)O)cc5n4C[C@@H]4CCO4)CC3)c2O1 (some centres unmarked) [CN2022114139828 , Compound 37, reference compound] | 137
